Measurements: patent US12559492B2, “BRAF degraders” (C4 Therapeutics, Inc., priority 2020, dated 2026)

Target: BRAF^V600E protein (Homo sapiens, UniProt P15056, V600E)
Assay: HiBiT cellular BRAF V600E degradation assay
Format: cell-based
Conditions: 24 h incubation; for DC50: A375.10 cells (HiBiT tag knocked in at N-terminal of BRAF V600E), concentration at which 50% of total cellular BRAF V600E is degraded; for Emax: A375.10 cells, Emax = amount of residual protein remaining in the cell after compound treatment, read-out: HiBit 24 h Emax

Chain of BRAF^V600E protein (P15056 whole entry V600E): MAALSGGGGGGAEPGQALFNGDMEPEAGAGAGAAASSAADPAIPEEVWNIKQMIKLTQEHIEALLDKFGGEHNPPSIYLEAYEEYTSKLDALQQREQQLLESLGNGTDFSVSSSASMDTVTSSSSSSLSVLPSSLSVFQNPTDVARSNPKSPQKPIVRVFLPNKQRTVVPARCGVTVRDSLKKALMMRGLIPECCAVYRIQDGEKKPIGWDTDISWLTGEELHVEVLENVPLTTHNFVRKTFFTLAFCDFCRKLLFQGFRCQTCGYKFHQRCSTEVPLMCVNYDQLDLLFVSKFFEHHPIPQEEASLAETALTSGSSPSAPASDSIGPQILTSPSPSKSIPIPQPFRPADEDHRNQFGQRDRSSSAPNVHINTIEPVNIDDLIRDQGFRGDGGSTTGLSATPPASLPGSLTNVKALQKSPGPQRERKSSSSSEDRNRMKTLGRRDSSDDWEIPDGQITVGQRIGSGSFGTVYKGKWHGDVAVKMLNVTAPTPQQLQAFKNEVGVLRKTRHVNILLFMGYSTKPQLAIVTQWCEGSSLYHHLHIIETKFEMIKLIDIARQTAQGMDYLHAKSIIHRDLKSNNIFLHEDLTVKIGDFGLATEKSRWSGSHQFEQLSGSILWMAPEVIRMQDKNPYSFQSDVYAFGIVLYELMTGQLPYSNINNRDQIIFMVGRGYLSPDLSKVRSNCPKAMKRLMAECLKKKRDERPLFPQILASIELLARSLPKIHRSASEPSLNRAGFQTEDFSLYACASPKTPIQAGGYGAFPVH

| SMILES | DC50 | Emax |
| --- | --- | --- |
| CCN(C)S(=O)(=O)Nc1ccc(F)c(C(=O)c2c[nH]c3ncc(-c4cc(F)c(N5CCN(C(=O)CN6CCC(c7ccc(NC8CCC(=O)NC8=O)cc7)CC6)CC5)c(F)c4)cc23)c1F (stereo not drawn) [Example 93, 5-[4-[4-[2-[4-[4-[(2,6-dioxo-3-piperidyl)amino]phenyl]-1-piperidyl]acetyl]piperazin-1-yl]-3,5-difluoro-phenyl]-3-[3-[[ethyl(methyl)sulfamoyl]amino]-2,6-difluoro-benzoyl]-1H-pyrrolo[2,3-b]pyridine] | 23.8 nM | 8.31% |
| CCN(C)S(=O)(=O)Nc1ccc(F)c(C(=O)c2c[nH]c3ncc(-c4ccc(CN5CCN(CC(=O)N6CCC(c7ccc(NC8CCC(=O)NC8=O)cc7)CC6)CC5)cc4)cc23)c1F (stereo not drawn) [Example 94, 5-[4-[[4-[2-[4-[4-[(2,6-dioxo-3-piperidyl)amino]phenyl]-1-piperidyl]-2-oxo-ethyl]piperazin-1-yl]methyl]phenyl]-3-[3-[[ethyl(methyl)sulfamoyl]amino]-2,6-difluoro-benzoyl]-1H-pyrrolo[2,3-b]pyridine] | 21.2 nM | 12.8% |
| CCN(C)S(=O)(=O)Nc1ccc(F)c(C(=O)c2c[nH]c3ncc(-c4ccc(CN5CCN(C(=O)CN6CCN(c7ccc(NC8CCC(=O)NC8=O)cc7)CC6)CC5)cc4)cc23)c1F (stereo not drawn) [Example 95, 5-[4-[[4-[2-[4-[4-[(2,6-dioxo-3-piperidyl)amino]phenyl]piperazin-1-yl]acetyl]piperazin-1-yl]methyl]phenyl]-3-[3-[[ethyl(methyl)sulfamoyl]amino]-2,6-difluoro-benzoyl]-1H-pyrrolo[2,3-b]pyridine] | 30.4 nM | 12.8% |
| CCN(C)S(=O)(=O)Nc1cccc(C(=O)c2c[nH]c3ncc(-c4cnc(N5CCN(C(=O)CN6CCC(c7ccc(NC8CCC(=O)NC8=O)cc7)CC6)CC5)nc4)cc23)c1F (stereo not drawn) [Example 96, 5-[2-[4-[2-[4-[4-[(2,6-dioxo-3-piperidyl)amino]phenyl]-1-piperidyl]acetyl]piperazin-1-yl]pyrimidin-5-yl]-3-[3-[[ethyl(methyl)sulfamoyl]amino]-2-fluoro-benzoyl]-1H-pyrrolo[2,3-b]pyridine] | 9.43 nM | 8.26% |
| CCN(C)S(=O)(=O)Nc1cccc(C(=O)c2c[nH]c3ncc(-c4cnc(N5CCN(C(=O)CN6CCC(c7ccc(NC8CCC(=O)NC8=O)cc7F)CC6)CC5)nc4)cc23)c1F (stereo not drawn) [Example 97, 5-[2-[4-[2-[4-[4-[(2,6-dioxo-3-piperidyl)amino]-2-fluoro-phenyl]-1-piperidyl]acetyl]piperazin-1-yl]pyrimidin-5-yl]-3-[3-[[ethyl(methyl)sulfamoyl]amino]-2-fluoro-benzoyl]-1H-pyrrolo[2,3-b]pyridine] | 6.62 nM | 7.94% |
| CCN(C)S(=O)(=O)Nc1cccc(C(=O)c2c[nH]c3ncc(-c4cnc(N5CCN(C(=O)CC6CCN(c7ccc(NC8CCC(=O)NC8=O)cc7F)CC6)CC5)nc4)cc23)c1F (stereo not drawn) [Example 98, 5-[2-[4-[2-[1-[4-[(2,6-dioxo-3-piperidyl)amino]-2-fluoro-phenyl]-4-piperidyl]acetyl]piperazin-1-yl]pyrimidin-5-yl]-3-[3-[[ethyl(methyl)sulfamoyl]amino]-2-fluoro-benzoyl]-1H-pyrrolo[2,3-b]pyridine] | 4.67 nM | 7.42% |
| CCN(C)S(=O)(=O)Nc1cccc(C(=O)c2c[nH]c3ncc(-c4cnc(N5CCN(C(=O)CC6(O)CCN(c7ccc(NC8CCC(=O)NC8=O)cc7)CC6)CC5)nc4)cc23)c1F (stereo not drawn) [Example 99, 5-[2-[4-[2-[1-[4-[(2,6-dioxo-3-piperidyl)amino]phenyl]-4-hydroxy-4-piperidyl]acetyl]piperazin-1-yl]pyrimidin-5-yl]-3-[3-[[ethyl(methyl)sulfamoyl]amino]-2-fluoro-benzoyl]-1H-pyrrolo[2,3-b]pyridine] | 9.55 nM | 13.2% |
| CCN(C)S(=O)(=O)Nc1cccc(C(=O)c2c[nH]c3ncc(-c4cnc(N5CCN(C(=O)CN6CCC(c7ccc(NC8CCC(=O)NC8=O)cc7)C(F)(F)C6)CC5)nc4)cc23)c1F (stereo not drawn) [Example 100, 5-[2-[4-[2-[4-[4-[(2,6-dioxo-3-piperidyl)amino]phenyl]-3,3-difluoro-1-piperidyl]acetyl]piperazin-1-yl]pyrimidin-5-yl]-3-[3-[[ethyl(methyl)sulfamoyl]amino]-2-fluoro-benzoyl]-1H-pyrrolo[2,3-b]pyridine] | 9.52 nM | 6.76% |
| CCN(C)S(=O)(=O)Nc1cccc(C(=O)c2c[nH]c3ncc(-c4cnc(N5CCN(C(=O)CC6(O)CCN(c7ccc(NC8CCC(=O)NC8=O)cc7F)CC6)CC5)nc4)cc23)c1F (stereo not drawn) [Example 101, 5-[2-[4-[2-[1-[4-[(2,6-dioxo-3-piperidyl)amino]-2-fluoro-phenyl]-4-hydroxy-4-piperidyl]acetyl]piperazin-1-yl]pyrimidin-5-yl]-3-[3-[[ethyl(methyl)sulfamoyl]amino]-2-fluoro-benzoyl]-1H-pyrrolo[2,3-b]pyridine] | 3.38 nM | 10.2% |
| CCN(C)S(=O)(=O)Nc1cccc(C(=O)c2c[nH]c3ncc(-c4cnc(N5CCN(C(=O)CC6(O)CCN(c7ccc(NC8CCC(=O)NC8=O)cc7F)C6)CC5)nc4)cc23)c1F (stereo not drawn) [Example 102, 5-[2-[4-[2-[1-[4-[(2,6-dioxo-3-piperidyl)amino]-2-fluoro-phenyl]-3-hydroxy-pyrrolidin-3-yl]acetyl]piperazin-1-yl]pyrimidin-5-yl]-3-[3-[[ethyl(methyl)sulfamoyl]amino]-2-fluoro-benzoyl]-1H-pyrrolo[2,3-b]pyridine] | 6.88 nM | 8.28% |
| CCN(C)S(=O)(=O)Nc1cccc(C(=O)c2c[nH]c3ncc(-c4cnc(N5CCN(C(=O)CC6(O)CCN(c7ccc(NC8CCC(=O)NC8=O)cc7Cl)CC6)CC5)nc4)cc23)c1F (stereo not drawn) [Example 103, 5-[2-[4-[2-[1-[2-chloro-4-[(2,6-dioxo-3-piperidyl)amino]phenyl]-4-hydroxy-4-piperidyl]acetyl]piperazin-1-yl]pyrimidin-5-yl]-3-[3-[[ethyl(methyl)sulfamoyl]amino]-2-fluoro-benzoyl]-1H-pyrrolo[2,3-b]pyridine] | 3.04 nM | 8.98% |
| CCN(C)S(=O)(=O)Nc1cccc(C(=O)c2c[nH]c3ncc(-c4cnc(N5CCN(C(=O)CC6(O)CCN(c7ncc(NC8CCC(=O)NC8=O)cc7F)CC6)CC5)nc4)cc23)c1F (stereo not drawn) [Example 104, 5-[2-[4-[2-[1-[5-[(2,6-dioxo-3-piperidyl)amino]-3-fluoro-2-pyridyl]-4-hydroxy-4-piperidyl]acetyl]piperazin-1-yl]pyrimidin-5-yl]-3-[3-[[ethyl(methyl)sulfamoyl]amino]-2-fluoro-benzoyl]-1H-pyrrolo[2,3-b]pyridine] | 3.37 nM | 10.8% |

The remaining lines, values ahead:

| DC50 | Emax | SMILES |
| --- | --- | --- |
| 42.2 nM | 36.9% | CCN(C)S(=O)(=O)Nc1cccc(C(=O)c2c[nH]c3ncc(-c4cnc(N5CCN(C(=O)CC6(O)CCN(c7ccc(NC8CCC(=O)NC8=O)cn7)CC6)CC5)nc4)cc23)c1F (stereo not drawn) [Example 105, 5-[2-[4-[2-[1-[5-[(2,6-dioxo-3-piperidyl)amino]-2-pyridyl]-4-hydroxy-4-piperidyl]acetyl]piperazin-1-yl]pyrimidin-5-yl]-3-[3-[[ethyl(methyl)sulfamoyl]amino]-2-fluoro-benzoyl]-1H-pyrrolo[2,3-b]pyridine] |
| 34.8 nM | 11.5% | CCN(C)S(=O)(=O)Nc1cccc(C(=O)c2c[nH]c3ncc(-c4cnc(N5CCN(C(=O)CC6CCN(c7ccc(NC8CCC(=O)NC8=O)cc7C(F)(F)F)CC6)CC5)nc4)cc23)c1F (stereo not drawn) [Example 106, 5-[2-[4-[2-[1-[4-[(2,6-dioxo-3-piperidyl)amino]-2-(trifluoromethyl)phenyl]-4-piperidyl]acetyl]piperazin-1-yl]pyrimidin-5-yl]-3-[3-[[ethyl(methyl)sulfamoyl]amino]-2-fluoro-benzoyl]-1H-pyrrolo[2,3-b]pyridine] |
| 3.08 nM | 7.97% | CCN(C)S(=O)(=O)Nc1cccc(C(=O)c2c[nH]c3ncc(-c4ccc(N5CCN(C(=O)CN6CCC(c7ccc(NC8CCC(=O)NC8=O)cc7)CC6)CC5)nc4)cc23)c1F (stereo not drawn) [Example 107, 5-[6-[4-[2-[4-[4-[(2,6-dioxo-3-piperidyl)amino]phenyl]-1-piperidyl]acetyl]piperazin-1-yl]-3-pyridyl]-3-[3-[[ethyl(methyl)sulfamoyl]amino]-2-fluoro-benzoyl]-1H-pyrrolo[2,3-b]pyridine] |
| 5.6 nM | 11.4% | CCN(C)S(=O)(=O)Nc1cccc(C(=O)c2c[nH]c3ncc(-c4ccc(N5CCN(C(=O)CN6CCC(c7ccc(OC8CCC(=O)NC8=O)cc7)CC6)CC5)nc4)cc23)c1F (stereo not drawn) [Example 108, 5-[6-[4-[2-[4-[4-[(2,6-dioxo-3-piperidyl)oxy]phenyl]-1-piperidyl]acetyl]piperazin-1-yl]-3-pyridyl]-3-[3-[[ethyl(methyl)sulfamoyl]amino]-2-fluoro-benzoyl]-1H-pyrrolo[2,3-b]pyridine] |
| 5.49 nM | 10.8% | CCN(C)S(=O)(=O)Nc1cccc(C(=O)c2c[nH]c3ncc(-c4ccc(N5CCN(C(=O)CC6(O)CCN(c7ccc(NC8CCC(=O)NC8=O)cc7)CC6)CC5)nc4)cc23)c1F (stereo not drawn) [Example 109, 5-[6-[4-[2-[1-[4-[(2,6-dioxo-3-piperidyl)amino]phenyl]-4-hydroxy-4-piperidyl]acetyl]piperazin-1-yl]-3-pyridyl]-3-[3-[[ethyl(methyl)sulfamoyl]amino]-2-fluoro-benzoyl]-1H-pyrrolo[2,3-b]pyridine] |
| 4.47 nM | 7.75% | CCN(C)S(=O)(=O)Nc1cccc(C(=O)c2c[nH]c3ncc(-c4ccc(N5CCN(C(=O)CN6CCC(c7ccc(NC8CCC(=O)NC8=O)cc7)C(F)(F)C6)CC5)nc4)cc23)c1F (stereo not drawn) [Example 110, 5-[6-[4-[2-[4-[4-[(2,6-dioxo-3-piperidyl)amino]phenyl]-3,3-difluoro-1-piperidyl]acetyl]piperazin-1-yl]-3-pyridyl]-3-[3-[[ethyl(methyl)sulfamoyl]amino]-2-fluoro-benzoyl]-1H-pyrrolo[2,3-b]pyridine] |
